This note sets out measurements from patent US9067943B2, “[1,2,3]triazolo[4,5-D]pyrimidine derivatives” (priority 2011, dated 2015).

One assay deals with T1, human CB2 receptors (Homo sapiens, UniProt P34972).
T1 construct: expressed in transfected cells; host or cells: CHO cells
Briefly: cAMP assay. Type of assay: cell-based. As for the experimental part: (§1) CHO cells expressing human CB1 or CB2 receptors are seeded 17-24 hours prior to the experiment 50.000 cells per well in a black 96 well plate with flat clear bottom (Corning Costar #3904) in DMEM (Invitrogen No. 31331), 1×HT supplement, with 10% fetal calf serum and incubated at 5% CO2 and 37° C. in a humidified incubator. The growth medium was exchanged with Krebs Ringer Bicarbonate buffer with 1 mM IBMX and incubated at 30° C. for 30 min. Compounds were added to a final assay volume of 100 μl and incubated for 30 min at 30° C. Using the cAMP-Nano-TRF detection kit the assay (Roche Diagnostics) was stopped by the addition of 50 μl lysis reagent (Tris, NaCl, 1.5% Triton X100, 2.5% NP40, 10% NaN3) and 50 μl detection solutions (20 μM mAb Alexa700-cAMP 1:1, and 48 μM Ruthenium-2-AHA-cAMP) and shaken for 2 h at room temperature. The time-resolved energy transfer is measured by a TRF reader (Evotec Technologies GmbH), equipped with a ND:YAG laser as excitation source. The plate is measured twice with the excitation at 355 nm and at the emission with a delay of 100 ns and a gate of 100 ns, total exposure time 10 s at 730 (bandwidth 30 nm) or 645 nm (bandwidth 75 nm), respectively. The FRET signal is calculated as follows: FRET=T730-Alexa730-P(T645-B645) with P=Ru730-B730/Ru645-B645, where T730 is the test well measured at 730 nM, T645 is the test well measured at 645 nm, B730 and B645 are the buffer controls at 730 nm and 645 nm, respectively. cAMP content is determined from the function of a standard curve spanning from 10 μM to 0.1 nM cAMP.
(§2) EC50 values were determined using Activity Base analysis (ID Business Solution, Limited). The EC50 values for a wide range of cannabinoid agonists generated from this assay were in agreement with the values published in the scientific literature.
A general note: Changes in cAMP serve as a functional read-out for many G protein-coupled receptors.

The target in another assay is T2, human CB1 receptors (Homo sapiens, UniProt P21554).
T2 construct: expressed in transfected cells; host or cells: CHO cells
T2 sequence (P21554 whole entry): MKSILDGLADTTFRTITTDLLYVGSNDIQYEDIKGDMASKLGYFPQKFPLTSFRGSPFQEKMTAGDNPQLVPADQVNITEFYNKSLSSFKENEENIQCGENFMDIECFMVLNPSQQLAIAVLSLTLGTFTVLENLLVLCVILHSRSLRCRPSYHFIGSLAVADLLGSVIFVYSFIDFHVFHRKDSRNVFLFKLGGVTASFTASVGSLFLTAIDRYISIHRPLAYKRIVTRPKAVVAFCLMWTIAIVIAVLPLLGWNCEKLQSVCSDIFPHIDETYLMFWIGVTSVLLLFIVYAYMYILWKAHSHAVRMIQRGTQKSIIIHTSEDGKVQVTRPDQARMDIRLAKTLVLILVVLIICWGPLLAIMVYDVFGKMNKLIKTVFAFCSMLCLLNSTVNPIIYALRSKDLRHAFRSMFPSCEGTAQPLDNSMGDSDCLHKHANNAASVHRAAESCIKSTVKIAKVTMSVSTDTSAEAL
Briefly: cAMP assay. Type of assay: cell-based. As for the experimental part: as §1, §2

pEC50: −log10 of the molar value.

T1 sequence (P34972 whole entry): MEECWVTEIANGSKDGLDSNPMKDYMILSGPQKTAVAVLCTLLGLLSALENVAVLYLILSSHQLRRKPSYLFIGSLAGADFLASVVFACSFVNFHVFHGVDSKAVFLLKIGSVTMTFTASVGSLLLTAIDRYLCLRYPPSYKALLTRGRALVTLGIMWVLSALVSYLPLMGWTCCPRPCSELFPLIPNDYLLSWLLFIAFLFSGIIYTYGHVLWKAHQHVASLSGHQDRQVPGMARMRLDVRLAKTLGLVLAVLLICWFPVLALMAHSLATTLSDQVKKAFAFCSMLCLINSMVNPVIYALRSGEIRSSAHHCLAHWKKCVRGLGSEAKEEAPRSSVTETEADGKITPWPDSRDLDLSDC

For `Cc1nonc1Cn1nc2nc(C(C)(C)C)nc(N3CCC(F)(F)C3)c2n1` [Example 39, 5-tert-Butyl-7-(3,3-difluoro-pyrrolidin-1-yl)-2-(4-methyl-furazan-3-ylmethyl)-2H-[1,2,3]triazolo[4,5-d]pyrimidine], the pEC50 (in general, −log10 of the EC50, conventionally taken in molar units) on human CB2 receptors is 9.70; on human CB1 receptors it was < 5.00.
For `Cc1noc(Cn2nc3nc(C(C)(C)C)nc(N4CCC(F)(F)C4)c3n2)n1` [Example 40, 5-tert-Butyl-7-(3,3-difluoro-pyrrolidin-1-yl)-2-(3-methyl-[1,2,4]oxadiazol-5-ylmethyl)-2H-[1,2,3]triazolo[4,5-d]pyrimidine], the pEC50 on human CB2 receptors is 8.37; at human CB1 receptors it was < 5.00.
The like results for `CC(C)(C)c1nc(N2CCC(F)(F)C2)c2nn(CCc3ccccc3Cl)nc2n1` [Example 41, 5-tert-Butyl-2-[2-(2-chloro-phenyl)-ethyl]-7-(3,3-difluoro-pyrrolidin-1-yl)-2H-[1,2,3]triazolo[4,5-d]pyrimidine] were, in that order, 9.30 and 6.30.
The like results for `CC(C)(C)c1nc(N2CCC(F)(F)C2)c2nn(CCc3cccc(Cl)c3)nc2n1` [Example 42, 5-tert-Butyl-2-[2-(3-chloro-phenyl)-ethyl]-7-(3,3-difluoro-pyrrolidin-1-yl)-2H-[1,2,3]triazolo[4,5-d]pyrimidine] were, in that order, 7.97 and < 5.00.
The like results for `CC(C)(C)c1nc(N2CCC(F)(F)C2)c2nn(CCc3ccc(Cl)cc3)nc2n1` [Example 43, 5-tert-Butyl-2-[2-(4-chloro-phenyl)-ethyl]-7-(3,3-difluoro-pyrrolidin-1-yl)-2H-[1,2,3]triazolo[4,5-d]pyrimidine] were, in that order, 7.66 and < 5.00.
In the case of `CC(C)(C)c1nc(N2CCC(F)(F)C2)c2nn(Cc3c(Cl)ccnc3Cl)nc2n1` [Example 44, 5-tert-Butyl-2-(2,4-dichloro-pyridin-3-ylmethyl)-7-(3,3-difluoro-pyrrolidin-1-yl)-2H-[1,2,3]triazolo[4,5-d]pyrimidine], the pEC50 at human CB2 receptors was 9.70; on human CB1 receptors, 6.34.
On to `CC(C)(C)c1nc(N2CCC(F)(F)C2)c2nn([C@@H]3CCOC3)nc2n1` [Example 45, 5-tert-Butyl-7-(3,3-difluoro-pyrrolidin-1-yl)-2-(R)-tetrahydro-furan-3-yl-2H-[1,2,3]triazolo[4,5-d]pyrimidine], for which the values for the pEC50 at human CB2 receptors and at human CB1 receptors were 8.12 and < 5.00, respectively.
As for `CC(C)(C)c1nc(N2CCC(F)(F)C2)c2nn([C@H]3CCOC3)nc2n1` [Example 46, 5-tert-Butyl-7-(3,3-difluoro-pyrrolidin-1-yl)-2-(S)-tetrahydro-furan-3-yl-2H-[1,2,3]triazolo[4,5-d]pyrimidine], the pEC50 was 8.55 at human CB2 receptors and < 5.00 at human CB1 receptors.
The like results for `CC(C)(C)c1nc(N2CCC(F)(F)C2)c2nn(CC(=O)c3ccccc3Cl)nc2n1` [Example 47, 2-[5-tert-Butyl-7-(3,3-difluoro-pyrrolidin-1-yl)-[1,2,3]triazolo[4,5-d]pyrimidin-2-yl]-1-(2-chloro-phenyl)-ethanone] were, in that order, 9.22 and < 5.00.
For `CC(C)(C)c1nc(N2CCC(F)(F)C2)c2nn(Cc3c(F)ccc(Cl)c3Cl)nc2n1` [Example 48, 5-tert-Butyl-2-(2,3-dichloro-6-fluoro-benzyl)-7-(3,3-difluoro-pyrrolidin-1-yl)-2H-[1,2,3]triazolo[4,5-d]pyrimidine], the pEC50 at human CB2 receptors was 8.26; on human CB1 receptors, < 5.00.
The like results for `CC(C)(C)c1nc(N2CCC(F)(F)C2)c2nn(Cc3ccccc3S(C)(=O)=O)nc2n1` [Example 49, 5-tert-Butyl-7-(3,3-difluoro-pyrrolidin-1-yl)-2-(2-methanesulfonyl-benzyl)-2H-[1,2,3]triazolo[4,5-d]pyrimidine] were, in that order, 9.40 and 6.82.
`CC(C)(C)c1nc(N2CCC(F)(F)C2)c2nn(CCc3ccccn3)nc2n1` [Example 50, 5-tert-Butyl-7-(3,3-difluoro-pyrrolidin-1-yl)-2-(2-pyridin-2-yl-ethyl)-2H-[1,2,3]triazolo[4,5-d]pyrimidine]: the pEC50 on human CB2 receptors is 8.82; at human CB1 receptors, < 5.00.
The like results for `CC1(Cn2nc3nc(C(C)(C)C)nc(N4CCC(F)(F)C4)c3n2)COC1` [Example 51, 5-tert-Butyl-7-(3,3-difluoro-pyrrolidin-1-yl)-2-(3-methyl-oxetan-3-ylmethyl)-2H-[1,2,3]triazolo[4,5-d]pyrimidine] were, in that order, 9.05 and < 5.00.
As to `CC(C)(C)c1nc(N2CCC(F)(F)C2)c2nn(CC(=O)c3cccc(Cl)c3)nc2n1` [Example 52, 2-[5-tert-Butyl-7-(3,3-difluoro-pyrrolidin-1-yl)-[1,2,3]triazolo[4,5-d]pyrimidin-2-yl]-1-(3-chloro-phenyl)-ethanone], the pEC50 on human CB2 receptors is 7.89; at human CB1 receptors it was < 5.00.
Turning to `CC(C)(C)c1nc(N2CCC(F)(F)C2)c2nn(CC(=O)c3ccc(Cl)cc3)nc2n1` [Example 53, 2-[5-tert-Butyl-7-(3,3-difluoro-pyrrolidin-1-yl)-[1,2,3]triazolo[4,5-d]pyrimidin-2-yl]-1-(4-chloro-phenyl)-ethanone], the figures for the pEC50 on human CB2 receptors and on human CB1 receptors were 8.14 and < 5.00, respectively.
As for `CC(C)(C)c1nc(N2CCC(F)(F)C2)c2nn(CC(=O)c3cccnc3)nc2n1` [Example 54, 2-[5-tert-Butyl-7-(3,3-difluoro-pyrrolidin-1-yl)-[1,2,3]triazolo[4,5-d]pyrimidin-2-yl]-1-pyridin-3-yl-ethanone], the pEC50 on human CB2 receptors was 8.19; at human CB1 receptors, < 5.00.
The like results for `CC(C)(C)c1nc(N2CCC(F)(F)C2)c2nn(Cc3c(Cl)ccc(Cl)c3Cl)nc2n1` [Example 55, 5-tert-Butyl-7-(3,3-difluoro-pyrrolidin-1-yl)-2-(2,3,6-trichloro-benzyl)-2H-[1,2,3]triazolo[4,5-d]pyrimidine] were, in that order, 8.06 and < 5.00.
The like results for `CC(C)(C)c1nc(N2CCC(F)(F)C2)c2nn(Cc3cccc(C(F)(F)F)c3Cl)nc2n1` [Example 56, 5-tert-Butyl-2-(2-chloro-3-trifluoromethyl-benzyl)-7-(3,3-difluoro-pyrrolidin-1-yl)-2H-[1,2,3]triazolo[4,5-d]pyrimidine] were, in that order, 7.90 and < 5.00.
The like results for `COc1ccc(F)c(Cn2nc3nc(C(C)(C)C)nc(N4CCC(F)(F)C4)c3n2)c1Cl` [Example 57, 5-tert-Butyl-2-(2-chloro-6-fluoro-3-methoxy-benzyl)-7-(3,3-difluoro-pyrrolidin-1-yl)-2H-[1,2,3]triazolo[4,5-d]pyrimidine] were, in that order, 8.44 and < 5.00.
For the molecule `CC(C)(C)c1nc(N2CCC(F)(F)C2)c2nn(CCc3cccnc3)nc2n1` [Example 58, 5-tert-Butyl-7-(3,3-difluoro-pyrrolidin-1-yl)-2-(2-pyridin-3-yl-ethyl)-2H-[1,2,3]triazolo[4,5-d]pyrimidine], the values for the pEC50 on human CB2 receptors and on human CB1 receptors were 8.37 and < 5.00, respectively.
The like results for `CC(C)(C)c1nc(N2CCC(F)(F)C2)c2nn(CCc3ccncc3)nc2n1` [Example 59, 5-tert-Butyl-7-(3,3-difluoro-pyrrolidin-1-yl)-2-(2-pyridin-4-yl-ethyl)-2H-[1,2,3]triazolo[4,5-d]pyrimidine] were, in that order, 8.46 and < 5.00.
In the case of `CC(C)(C)c1nc(N2CCC(F)(F)C2)c2nn(Cc3c(C(F)(F)F)ccc(Cl)c3Cl)nc2n1` [Example 60, 5-tert-Butyl-2-(2,3-dichloro-6-trifluoromethyl-benzyl)-7-(3,3-difluoro-pyrrolidin-1-yl)-2H-[1,2,3]triazolo[4,5-d]pyrimidine], the pEC50 at human CB2 receptors is 7.90; on human CB1 receptors, < 5.00.
The like results for `CC(C)(C)c1nc(N2CCC(F)(F)C2)c2nn(Cc3nccc(Cl)c3Cl)nc2n1` [Example 61, 5-tert-Butyl-2-(3,4-dichloro-pyridin-2-ylmethyl)-7-(3,3-difluoro-pyrrolidin-1-yl)-2H-[1,2,3]triazolo[4,5-d]pyrimidine] were, in that order, 8.59 and < 5.00.
The like results for `CC(C)(C)c1nc(N2CCC(F)(F)C2)c2nn(C3CS(=O)(=O)C3)nc2n1` [Example 62, 5-tert-Butyl-7-(3,3-difluoro-pyrrolidin-1-yl)-2-(1,1-dioxo-1λ6-thietan-3-yl)-2H-[1,2,3]triazolo[4,5-d]pyrimidine] were, in that order, 8.24 and < 5.00.
As to `CC(C)(C)c1nc(N2CCC(F)(F)C2)c2nn(C3CCS(=O)(=O)C3)nc2n1` (centres unmarked) [Example 63, 5-tert-Butyl-7-(3,3-difluoro-pyrrolidin-1-yl)-2-(1,1-dioxo-tetrahydro-1λ6-thiophen-3-yl)-2H-[1,2,3]triazolo[4,5-d]pyrimidine], the pEC50 is 8.40 at human CB2 receptors and < 5.00 on human CB1 receptors.
